{"source": "ChEMBL document CHEMBL1147753", "about": "“Biphenyl-4-ylcarbamoyl thiophene carboxylic acids as potent DHODH inhibitors” (Bioorg Med Chem Lett, 2006)", "key": {"[1]": {"target": "Dihydroorotate dehydrogenase (quinone), mitochondrial (Homo sapiens, UniProt Q02127)", "sequence (Q02127 whole entry)": "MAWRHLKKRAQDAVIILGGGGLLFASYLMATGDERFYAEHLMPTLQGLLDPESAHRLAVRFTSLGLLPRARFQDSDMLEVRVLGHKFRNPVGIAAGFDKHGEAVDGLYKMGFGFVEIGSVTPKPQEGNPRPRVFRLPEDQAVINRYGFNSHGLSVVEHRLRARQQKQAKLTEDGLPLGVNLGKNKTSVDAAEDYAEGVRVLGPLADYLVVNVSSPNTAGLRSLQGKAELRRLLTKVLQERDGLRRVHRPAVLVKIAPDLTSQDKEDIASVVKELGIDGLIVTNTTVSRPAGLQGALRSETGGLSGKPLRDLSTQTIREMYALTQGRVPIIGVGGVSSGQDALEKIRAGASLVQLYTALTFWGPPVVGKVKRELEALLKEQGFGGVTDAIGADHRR", "experiment": "Inhibitory activity against recombinant human DHODH"}, "PBMC": {"test_system": "PBMC", "experiment": "Antiproliferative activity on human PBMC", "assay_type": "functional, cell-based"}}, "data": [{"smiles": "CCOc1ccccc1-c1cc(F)c(NC(=O)c2cscc2C(=O)O)c(F)c1", "values": [{"measurement": "IC50", "setting": "[1]", "result": 10, "unit": "nM"}]}, {"smiles": "COc1cccc(-c2ccc(NC(=O)c3ccsc3C(=O)O)c(F)c2)c1", "values": [{"measurement": "IC50", "setting": "[1]", "result": 44, "unit": "nM"}, {"measurement": "IC50", "setting": "PBMC", "result": 20000, "unit": "nM"}]}, {"smiles": "CCOc1cccc(-c2cc(F)c(NC(=O)c3cocc3C(=O)O)c(F)c2)c1", "values": [{"measurement": "IC50", "setting": "[1]", "result": 16, "unit": "nM"}, {"measurement": "IC50", "setting": "PBMC", "result": 15000, "unit": "nM"}]}, {"smiles": "COc1ccccc1-c1ccc(NC(=O)c2ccsc2C(=O)O)cc1Cl", "values": [{"measurement": "IC50", "setting": "[1]", "result": 12, "unit": "nM"}]}, {"smiles": "CCOc1cccc(-c2cc(F)c(NC(=O)c3ccsc3C(=O)O)c(F)c2)c1", "values": [{"measurement": "IC50", "setting": "[1]", "result": 3, "unit": "nM"}]}, {"smiles": "COc1cccc(-c2ccc(NC(=O)c3cc(C(=O)O)sc3C(=O)O)c(F)c2)c1", "values": [{"measurement": "IC50", "setting": "[1]", "result": "> 1000", "unit": "nM"}]}, {"smiles": "COc1cccc(-c2ccc(NC(=O)c3c(C(=O)O)csc3C(=O)O)c(F)c2)c1", "values": [{"measurement": "IC50", "setting": "[1]", "result": "> 1000", "unit": "nM"}]}, {"smiles": "COc1cccc(-c2ccc(NC(=O)c3cocc3C(=O)O)c(F)c2)c1", "values": [{"measurement": "IC50", "setting": "[1]", "result": 340, "unit": "nM"}]}, {"smiles": "COc1cccc(-c2ccc(NC(=O)c3csc(C(=O)O)c3C(=O)O)c(F)c2)c1", "values": [{"measurement": "IC50", "setting": "[1]", "result": "> 1000", "unit": "nM"}]}, {"smiles": "COc1ccccc1-c1c(F)c(F)c(NC(=O)c2ccsc2C(=O)O)c(F)c1F", "values": [{"measurement": "IC50", "setting": "PBMC", "result": 2000, "unit": "nM"}]}, {"smiles": "CCOc1ccccc1-c1cc(F)c(NC(=O)c2ccsc2C(=O)O)c(F)c1", "values": [{"measurement": "IC50", "setting": "[1]", "result": 9, "unit": "nM"}]}, {"smiles": "O=C(Nc1ccc(-c2ccccc2)cc1)c1ccsc1C(=O)O", "values": [{"measurement": "IC50", "setting": "[1]", "result": 303, "unit": "nM"}]}, {"smiles": "O=C(O)c1cscc1C(=O)Nc1ccc(-c2ccccc2)cc1", "values": [{"measurement": "IC50", "setting": "[1]", "result": 1000, "unit": "nM"}]}, {"smiles": "O=C(O)c1cscc1C(=O)Nc1c(F)cc(-c2ccccc2OC(F)(F)F)cc1F", "values": [{"measurement": "IC50", "setting": "[1]", "result": 10, "unit": "nM"}, {"measurement": "IC50", "setting": "PBMC", "result": 2000, "unit": "nM"}]}]}
